Results: ChEMBL document CHEMBL5223100, “Homobivalent, Trivalent, and Covalent PROTACs: Emerging Strategies for Protein Degradation” (J Med Chem, 2022)

Assays:
[1] = molecular target: T1, Bromodomain-containing protein 4 (Homo sapiens, UniProt O60885); experiment: Induction of BRD4 degradation in HEK293 cells after 8 hrs; type: cell-based
[2] = molecular target: T1, Bromodomain-containing protein 4; experiment: Induction of BRD4 degradation in HEK293 cells assessed as maximum degradation after 8 hrs relative to control; type: cell-based
[3] = molecular target: T1, Bromodomain-containing protein 4; experiment: Induction of BRD4 degradation in 231MFP cells; type: cell-based
[4] = molecular target: Protein fem-1 homolog B (Homo sapiens, UniProt Q9UK73); experiment: Binding affinity to FEM1B (unknown origin)
[5] = molecular target: E3 ubiquitin-protein ligase RNF114 (Homo sapiens, UniProt Q9Y508); experiment: Binding affinity to RNF114 (unknown origin)
[6] = molecular target: T1, Bromodomain-containing protein 4; experiment: Induction of BRD4 short isoform degradation in human 231MFP cells; type: cell-based
[7] = molecular target: T1, Bromodomain-containing protein 4; experiment: Induction of BRD4 long isoform degradation in human 231MFP cells; type: cell-based
[8] = Induction of HCV NS3 degradation after 4 hrs; parameters: species or system Hepacivirus hominis
[9] = test system: Hepatitis C virus; experiment: Antiviral activity against HCV harboring NS3 V55A mutant; type: functional, organism-based, Hepacivirus hominis
[10] = test system: Hepatitis C virus; experiment: Antiviral activity against wild type HCV; type: functional, organism-based, Hepacivirus hominis
[11] = molecular target: Hepatitis C virus serine protease, NS3/NS4A (Hepatitis C virus, UniProt A3EZI9+D2K2A8); experiment: Inhibition of HCV NS3/4a protease in Huh7.5 SGR cells using [Ac-DE-D(Edans)-EE-Abu-[COO]AS-K(Dabcyl)-NH2] as substrate preincubated for 15 mins followed by substrate addition and incubated for 1 hr by FRET assay; type: cell-based, Hepacivirus hominis
[12] = Induction of hRpn13Pru degradation in human RPMI-8226 cells; type: cell-based
[13] = test system: RPMI-8226; experiment: Induction of hRpn13Pru degradation in human RPMI-8226 cells assessed as maximum degradation at 50 uM relative to control; type: cell-based
[14] = test system: RPMI-8226; experiment: Antiproliferative activity against human RPMI-8226 cells; type: functional, cell-based
[15] = test system: PC-3; experiment: Antiproliferative activity against human PC-3 cells after 72 hrs; type: functional, cell-based; conditions: PC-3, 72 h
[16] = molecular target: Cyclin-dependent kinase 9 (Homo sapiens) (UniProt P50750); experiment: Induction of CDK9 degradation in human MOLT-4 cells assessed as maximum degradation after 16 hrs relative to control; type: cell-based
[17] = test system: CWR22R; experiment: Antiproliferative activity against human 22Rv1 cells after 72 hrs; type: functional, cell-based; conditions: 22Rv1, 72 h
[18] = molecular target: Protein cereblon (Homo sapiens, UniProt Q96SW2); experiment: Displacement of dBET6 from CRBN (unknown origin) transfected in BRD4 BD2-GFP mCherry report cells incubated for 5 hrs
[19] = molecular target: Serine/threonine-protein kinase Sgk3 (Homo sapiens, UniProt Q96BR1); experiment: Induction of SGK3 degradation in HEK293 cells; type: cell-based
[20] = molecular target: Serine/threonine-protein kinase Sgk3 (Homo sapiens) (UniProt Q96BR1); experiment: Induction of SGK3 degradation in HEK293 cells assessed as maximum degradation after 30 mins relative to control; type: cell-based
[21] = molecular target: T2, Phosphatidylinositol 3-kinase catalytic subunit type 3 (Homo sapiens, UniProt Q8NEB9); experiment: Induction of VPS34 degradation in HEK293 cells assessed as maximum degradation at 300 nM after 48 hrs relative to control; type: cell-based
[22] = molecular target: T2, Phosphatidylinositol 3-kinase catalytic subunit type 3; experiment: Induction of VPS34 degradation in HEK293 cells assessed as maximum degradation after 30 mins relative to control; type: cell-based
[23] = molecular target: Serine/threonine-protein kinase Sgk3 (Homo sapiens) (UniProt Q96BR1); experiment: Induction of SGK3 degradation in HEK293 cells assessed as maximum degradation at 300 nM after 48 hrs relative to control; type: cell-based
[24] = molecular target: T2, Phosphatidylinositol 3-kinase catalytic subunit type 3; experiment: Induction of VPS34 degradation in HEK293 cells; type: cell-based
[25] = molecular target: von Hippel-Lindau disease tumor suppressor (Homo sapiens, UniProt P40337); experiment: Binding affinity to VHL (unknown origin)
[26] = Induction of HaloTag7 fused GFP degradation in HEK293 cells; type: cell-based; conditions: Homo sapiens
[27] = test system: HEK293; experiment: Induction of HaloTag7 fused GFP degradation in HEK293 cells assessed as maximum degradation relative to control; type: cell-based; conditions: Homo sapiens
[28] = Antiproliferative activity against human MINO cells; type: functional, cell-based
[29] = test system: MOLM-14; experiment: Antiproliferative activity against human MOLM-14 cells; type: functional, cell-based
[30] = molecular target: T3, Tyrosine-protein kinase BTK (Homo sapiens, UniProt Q06187); experiment: Induction of BTK degradation in human MOLM-14 cells; type: cell-based
[31] = molecular target: T3, Tyrosine-protein kinase BTK; experiment: Induction of BTK degradation in human MOLM-14 cells assessed as maximum degradation at 200 nM relative to control; type: cell-based

## Cc1sc2c(c1C)C(c1ccc(Cl)cc1)=N[C@@H](CC(=O)NCCCCCNC(=O)CN1CCOc3cc(N(CCC#N)C(=O)CCl)ccc31)c1nnc(C)n1-2
[1]
  DC50: 250 nM
[2]
  Emax: 94%
[3]
  DC50: 198 nM
[4]
  IC50: 1500 nM

## COC(=O)C[C@H]1[C@]2(C)C3=C(C)[C@H](c4ccoc4-c4ccc(C(=O)NCCCNC(=O)C[C@@H]5N=C(c6ccc(Cl)cc6)C6C(C)=C(C)SC6n6c(C)nnc65)cc4)C[C@H]3O[C@@H]2C2OC(=O)[C@]3(C)C=CC(=O)[C@@]1(C)[C@@H]23 (stereo partly specified)
[5]
  IC50: 240 nM

## Cc1sc2c(c1C)C(c1ccc(Cl)cc1)=N[C@@H](CC(=O)NCCCCOc1ccc(C3CC(c4ccc(Br)cc4)=NN3C(=O)CCl)cc1)c1nnc(C)n1-2 (stereo partly specified)
[6]
  DC50: 14 nM
[7]
  DC50: 36 nM

## CCC[C@H](NC(=O)[C@@H]1[C@H]2CCC[C@H]2CN1C(=O)[C@@H](NC(=O)[C@@H](NC(=O)c1cnc(C(=O)NCCOCCOCCOc2cc3c4c(cccc4c2)C(=O)N(C2CCC(=O)NC2=O)C3=O)cn1)C1CCCCC1)C(C)(C)C)C(=O)C(=O)NC1CC1 (stereo partly specified)
[8]
  DC50: 50 nM
[9]
  IC50: 508 nM
[10]
  IC50: 558 nM
[11]
  IC50: 247 nM

## Cc1ncsc1-c1ccc([C@H](C)NC(=O)[C@@H]2C[C@@H](O)CN2C(=O)[C@@H](NC(=O)CCCCc2cn(-c3ccc(C(=O)Nc4cccc(/C=C(\C#N)C(=O)Nc5ccccc5C(=O)O)c4)cc3)nn2)C(C)(C)C)cc1
[12]
  DC50: 39000 nM
[13]
  Emax: 80%
[14]
  IC50: 4200 nM

## COc1cc(/C=C/C(=O)N2CCC=CC2=O)cc(OC)c1OCCN1CCN(C(=O)CN2CCC(C(=O)Nc3ncc(SCc4ncc(C(C)(C)C)o4)s3)CC2)CC1
[15]
  EC50: 6.4 nM
[16]
  Emax: 96%
[17]
  EC50: 4.4 nM

## C=CC(=O)N1CCN(c2nc(NCCCN3CCN(CCCNc4cccc5c4C(=O)N(C4CCC(=O)NC4=O)C5=O)CC3)nc3c(F)c(-c4cc(O)cc5ccccc45)c(Cl)cc23)CC1 (stereo unspecified)
[18]
  EC50: 79 nM

## Cc1ncsc1-c1ccc(CNC(=O)[C@@H]2C[C@@H](O)CN2C(=O)[C@@H](NC(=O)C2(C#N)CC2)C(C)(C)C)c(OCCOCCOCCOCCCCCCCl)c1
[19]
  DC50: 3 nM
[20]
  Emax: 50%
[21]
  Emax: 95%
[22]
  Emax: 50%
[23]
  Emax: 95%
[24]
  DC50: 3 nM

## Cc1ncsc1-c1ccc(CNC(=O)[C@@H]2C[C@@H](O)CN2C(=O)[C@H](C(C)C)N2Cc3ccccc3C2=O)c(OCCOCCOCCOCCCCCCCl)c1
[25]
  IC50: 540 nM
[26]
  DC50: 19 nM
[27]
  Emax: 90%

## CN(CCCNC(=O)CNc1cccc2c1C(=O)N(C1CCC(=O)NC1=O)C2=O)C(C)(C)/C=C(\C#N)C(=O)N1CCC[C@@H](n2nc(-c3ccc(Oc4ccccc4)cc3)c3c(N)ncnc32)C1 (stereo partly specified)
[28]
  IC50: 80 nM
[29]
  IC50: 300 nM
[30]
  DC50: 6.6 nM
[31]
  Emax: 81%
